According to patent publication US20120202877A1 (priority 2009, published 2012):

Legend:
[1] = test system: A/Paris/0497/2007 (H1N1, H274); assay: microbe, parasite or virus in culture; type: cell-based, influenza virus; conditions: for EC50: Influenza A virus, H1N1, 72 h, read-out: EC50, 50% reduction of the average plaque diameter
[2] = test system: A/Paris/908/97 (H3N2); assay: microbe, parasite or virus in culture; type: cell-based, influenza virus; conditions: for EC50: Influenza A virus, H3N2, 72 h, read-out: EC50, 50% reduction of the average plaque diameter
[3] = biological target: influenza A virus N1 sialidase [A/HongKong/156/97 (H5N1)] wild type (Influenza A virus, UniProt Q9W7Y7); assay: biochemical
[4] = biological target: influenza A virus N2 sialidase [A/Paris/908/97 (H3N2)] (Influenza A virus, UniProt Q9EA36); type: biochemical

| SMILES | EC50 [1] [µM] | EC50 [2] [µM] | change in plaque size [1] | change in plaque size [2] | Ki [3] [µM] | Ki [4] [µM] |
| --- | --- | --- | --- | --- | --- | --- |
| C=CCC1=C(C(=O)O)O[C@@H]([C@H](O)[C@H](O)CO)[C@H](NC(C)=O)[C@H]1O [Compound 7, 5-Acetamido-2,6-anhydro-3,5-dideoxy-3-C-(prop-2′-enyl)-D-glycero-D-galacto-non-2-en-onic acid] | 1800 | > 5000 | – | – | – | – |
| CC(=O)NC1C(O)C(CC=Cc2ccc(C)cc2)=C(C(=O)O)OC1C(O)C(O)CO (stereo not shown) [Compound 9d] | 80 | > 1000 | significant decrease in plaque size | little or no visible difference in plaque size | – | – |
| CC(=O)N[C@H]1[C@H]([C@H](O)[C@H](O)CO)OC(C(=O)O)=C[C@@H]1O [Neu5Ac2en, reference compound] | 20 | 20 | – | – | 0.97 ± 0.15 | 1.24 ± 0.23 |
